Results on two compounds are retold here after ChEMBL document CHEMBL4321804, “Myrmenaphthol A, Isolated from a Hawaiian Sponge of the Genus Myrmekioderma” (J Nat Prod, 2019).

The structures appear in SMILES notation. Values after ≈ are worked out from the molar mass of the structure shown. Active and inactive are the calls of the source. The calls are words filed in the database; no cut-off is given here.

In test [1] the target is T1, Estrogen receptor (Homo sapiens) (UniProt P03372).
T1 sequence (whole entry): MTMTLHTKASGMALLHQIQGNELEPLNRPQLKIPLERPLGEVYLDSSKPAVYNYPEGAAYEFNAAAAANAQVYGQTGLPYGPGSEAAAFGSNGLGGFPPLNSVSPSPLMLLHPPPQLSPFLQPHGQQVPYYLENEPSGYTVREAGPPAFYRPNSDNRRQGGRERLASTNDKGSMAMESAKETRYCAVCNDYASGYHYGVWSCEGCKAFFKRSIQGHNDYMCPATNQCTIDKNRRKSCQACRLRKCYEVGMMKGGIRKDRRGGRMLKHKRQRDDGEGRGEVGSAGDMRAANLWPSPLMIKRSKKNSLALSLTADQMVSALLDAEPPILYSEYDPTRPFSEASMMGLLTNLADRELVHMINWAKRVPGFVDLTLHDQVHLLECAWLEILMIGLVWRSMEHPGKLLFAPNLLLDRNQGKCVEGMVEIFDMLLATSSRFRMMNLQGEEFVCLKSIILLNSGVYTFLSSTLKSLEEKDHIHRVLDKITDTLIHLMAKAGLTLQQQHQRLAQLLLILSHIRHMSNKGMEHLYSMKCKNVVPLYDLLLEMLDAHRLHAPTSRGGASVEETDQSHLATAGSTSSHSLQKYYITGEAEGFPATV
Nature of the test: Agonist activity at GST-tagged ER-alpha ligand binding domain (unknown origin) assessed as fluorescein PGC1a coactivator peptide recruitment incubated up to 24 hrs by LanthaScreen TR-FRET co-regulator assay. For orientation: Time-resolved FRET reads energy transfer from a long-lived donor to a nearby acceptor.

Test [2] addresses T1, Estrogen receptor (Homo sapiens). Kind of test: Antagonist activity at 17-beta-estradiol-stimulated GST-tagged ER-alpha ligand binding domain (unknown origin) assessed as fluorescein PGC1a coactivator peptide recruitment incubated up to 24 hrs by LanthaScreen TR-FRET co-regulator assay.
Test [3] has the same target. Nature of the test: Inhibition of 17-beta-estradiol-stimulated human ER alpha-binding domain at 100 uM by LanthaScreen TR-FRET coregulator assay.
The target of test [4] is T2, Estrogen receptor (Homo sapiens, UniProt P03372).
T2 sequence (P03372 whole entry): T1 sequence (whole entry)
Kind of test: Displacement of [3H]-estradiol from human recombinant estrogen receptor expressed in insect cells incubated for 17 hrs by radioactive receptor binding assay.

The test system of test [5] is P388. Kind of test: Cytotoxicity against mouse P388 cells incubated for 72 hrs by MTT assay. Format: functional, cell-based. As to conditions: P388, 72 h. (In general: Formazan colour is commonly taken as a measure of viable cells.)
Test [6] deals with HeLa. Kind of test: Cytotoxicity against human HeLa cells incubated for 72 hrs by MTT assay. It is filed as functional, cell-based.

Usually inhibition stands for the change of the read-out against control, counted positive when it falls. Consider `C/C=C1/C(=O)C(O)=C2c3ccc4ccc(O)cc4c3CC[C@@]21C`, for which, in test [1], the result was inactive. In addition, the inhibition entry in test [2] is “inactive”. The inhibition in test [3] was 30%.
One may read the IC50 as the concentration that inhibits the measured activity by half. In the case of `C[C@@H]1C[C@@]12c1ccc3c(ccc4ccc(O)cc43)c1C[C@@H]2O`, the IC50 in test [4] was 10 nM; in test [5] it was 4.5 µg/mL (≈ 15.5 µM); in test [6], 0.4 µg/mL (≈ 1.38 µM). Further, the outcome in test [1] was inactive. In addition, in test [2], the inhibition result is “inactive”. In addition, the inhibition in test [3] was 30%.
